Assays:
[1] = test system: DLD-1 (human colorectal cancer cells); test: In vivo tumor growth inhibition, DLD-1 xenograft; set-up: species or system BALB/c nude mice; settings: for TGI %: combination studies (Examples 9, 11)
Method: DLD-1 (human colorectal cancer cells): Female 6-8 weeks old BALB/c nude mice were inoculated subcutaneously on the right flank with DLD-1 tumor cells (5×10^6) in 0.1 ml of RPMI1640 medium without serum for tumor development. The treatments were started when the mean tumor size reached approximately 195 mm^3 at Day 7 post inoculation and continued until end of study by twice daily oral gavage dosing of HC-7366 at listed doses (vehicle, 0.3 mg/kg HC-7366, 1 mg/kg HC-7366, 3 mg/kg HC-7366, 10 mg/kg HC-7366, or 30 mg/kg HC-7366, FIG. 10). For the time course study, tumors were harvested at Days 4, 7 and 14. Tumors were then used for IHC and RNAseq experiments (see Example 21).
[formula] • 2.2.2 Tumor Measurements: The measurement of tumor size was conducted three times weekly with a caliper and recorded. The tumor volume (mm^3) was estimated using the formula: TV=a×b^2/2, where “a” and “b” is long and short diameters of a tumor, respectively. Tumor volume was calculated using the formula [tumor volume (mm^3)=π/6×length×width^2).
Regression was calculated using the formula=100×ΔT/T initial, if ΔT<0. Animals with 0 mm^3 tumor volume (no measurable tumor) for three consecutive measurements were considered as complete responders and animals with 50% tumor regressions were partial responders.
(§1) The effect of DC101 in combination with HC-7366 in DLD-1 tumor-bearing mice was evaluated using protocols analogous to those described in Example 6. Mice were treated with 3 or 30 mg/kg HC-7366, twice daily by oral gavage. DC101 was administered at 20 mg/kg twice weekly and with twice daily dosing via intraperitoneal injection.
as §1, with “5-fluorouracil” for “DC101”, “75” for “20”, “once a week,” for “twice weekly and with”, “daily” for “daily dosing”, “intravenous” for “intraperitoneal”

[2] = test system: HIF1α and HIF2a in FaDu tumors; test: Tumor IHC, FaDu tumors; type: in vivo, BALB/c nude mice; settings: end of study
Method: Immunohistochemical analysis was carried out on tumors that were collected at the end of the study described in Example 6. Formalin-fixed paraffin-embedded samples were sectioned at 5 μm thickness and mounted on Superfrost Plus microscope slides (Fisher Scientific). All immunohistochemical (IHC) staining was performed on Bond Rx auto-stainer (Leica Biosystems) using the conventional TSA-amplified detection system. Primary antibodies used were as follows: a-ASNS (Cell Signaling Technology #92479), a-PUMA (Cell Signaling Technology #98672), a-PSAT1 (Proteintech #10501-1-AP), a-PHGDH (Proteintech #14719-1-AP), HIF-1a-Novus Biologicals NB 100-479, HIF-2a-Novus Biologicals NB100-122SS, and GLUT-1-EMB Biosciences 07-1401. […]
Slides were imaged with Aperio Versa 200 (Leica Biosystems) whole-slide scanner using 10×/0.32NA objective, and the data were analyzed using custom-written macros in ImageJ/FIJI (NIH). Briefly, 150 μm of outer edges of the tumor sections and necrotic regions (determined by lack of 4′,6-diamidino-2-phenylindole (DAPI) signal or presence of condensed DNA) were eliminated from the analysis. […] Scans of immune-staining were processed to remove background, then total intensity value above appropriate threshold levels was measured and normalized to tissue area. […]

[3] = test system: ASNS, PHGDH, PUMA, PSAT1, S100A8/A9 in MV4-11 tumors; test: Tumor IHC, MV4-11 tumors (venetoclax combination study); type: in vivo, BALB/c nude mice; settings: end-of-study tumors
Method: Immunohistochemical analysis was carried out on tumors that were collected at the end of the study described in Example 6. Formalin-fixed paraffin-embedded samples were sectioned at 5 μm thickness and mounted on Superfrost Plus microscope slides (Fisher Scientific). All immunohistochemical (IHC) staining was performed on Bond Rx auto-stainer (Leica Biosystems) using the conventional TSA-amplified detection system. Primary antibodies used were as follows: a-ASNS (Cell Signaling Technology #92479), a-PUMA (Cell Signaling Technology #98672), a-PSAT1 (Proteintech #10501-1-AP), a-PHGDH (Proteintech #14719-1-AP), HIF-1a-Novus Biologicals NB 100-479, HIF-2a-Novus Biologicals NB100-122SS, and GLUT-1-EMB Biosciences 07-1401. TSA-conjugated Alexa488, Alexa 568 and Alexa647 fluorophores from Invitrogen (#B40953, #B40956, and #B40958) were used at 1:500 dilution. Slides were counterstained with DAPI and cover slipped using Mowiol anti-fade mounting media (Sigma #D2522).
Slides were imaged with Aperio Versa 200 (Leica Biosystems) whole-slide scanner using 10×/0.32NA objective, and the data were analyzed using custom-written macros in ImageJ/FIJI (NIH). Briefly, 150 μm of outer edges of the tumor sections and necrotic regions (determined by lack of 4′,6-diamidino-2-phenylindole (DAPI) signal or presence of condensed DNA) were eliminated from the analysis. Gaussian-blurred DAPI channel was used to measure the area of the tumor tissue. Scans of immune-staining were processed to remove background, then total intensity value above appropriate threshold levels was measured and normalized to tissue area. All graphing and statistics (one-way ANOVA and pair-wise comparisons) were performed using Prism GraphPad.
Slides were deparaffinized, rehydrated and heat mediated antigen retrieval was conducted with AR6 buffer (Akoya). Slides were blocked with Roche diagnostics antibody diluent (Fisher) and stained with primary antibodies for 1 hr at 110 rpm. After washing, horseradish peroxidase (HRP)-conjugated secondary antibodies were added for 10 mins at 110 rpm. After washing, OPAL detection dye (Akoya) was added for a static 10 min incubation. Antigen retrieval was performed post OPAL staining, followed by DAPI staining and slide covering. Multispectral images were captured on the Polaris imaging system (Akoya) and spectral unmixing, cell segmentation and phenotyping was performed using Inform Tissue Finder software (Akoya). Imaging data was converted into .csv files and imported into Flowjo for analysis of S100A8/A9 percent positive cells. Primary antibodies used were rabbit anti-human/mouse S100A8/A9 (Clone RM1038, Abcam ab288715, paired with Opal 570).
Immunohistochemical analysis was performed on the tumors according to the procedures described in Example 7.

MOLM-16 cells [4] = test: Seahorse XF Mito stress test (OCR) and Glycolysis Stress Test (ECAR); type: cell-based, human; settings: 0.001, 0.1 or 10 μM, 16 hrs; strongest effect at 0.1 μM
Method: MOLM-16 cells were treated with 0.001, 0.1 or 10 μM HC-7366 for 16 hrs and the Seahorse XF Glycolysis Stress Test (ECAR; extracellular acidification rate) and Seahorse XF Mito stress test (OCR; oxygen consumption rate) (Agilent technologies, CA, USA) were performed.

MOLM-16 cells [5] = test: CTG viability assay, MOLM-16 sgControl and sgGCN2 cells; type: cell-based, human; settings: 24 or 48 hr
Method: MOLM-16 cells were obtained from DSMZ (#ACC 555) and were cultured in RPMI 1640 (Gibco, #11875119) with 20% FBS (Invitrogen, #10099141C) at 37° C. and 5% CO2. MOLM-16 GCN2 CRISPR knockout cells (sgGCN2) were generated and compared to control cells (sgControl). For viability experiments, cells were plated in 384-well cell culture plates and incubated overnight. Compounds were diluted in 8 concentrations by 3-fold dilution in 384pp-plate using TECAN EVO200 to a final concentration ranging from […]. The plates were incubated for 24 or 48 hr and viability was assessed by adding CellTiter-Glo® 2.0 Assay according to the manufacturer's protocol (Promega, G9243) to each well. The plates were then incubated at RT for 30 min. The luminescent signals were read by Envision (PerkinElmer) plate reader and analyzed by Prism.

[6] = test system: newly synthesized proteins; test: Puromycin labeling of newly synthesized proteins; type: cell-based; settings: 100 nM
[7] = HC-7366 3 mg/kg, alone or with venetoclax

SMILES: CNC(=O)c1ncn2cc(-c3c(F)ccc(NS(=O)(=O)c4cc(Cl)cnc4OC)c3F)ncc12 [HC-7366, 6-(3-((5-chloro-2-methoxypyridine)-3-sulfonamido)-2,6-difluorophenyl)-N-methylimidazo[1,5-a]pyrazine-1-carboxamide]
- tumor growth inhibition ([1]; 1 mg/kg and 3 mg/kg twice daily oral): ~78%
- TGI % ([1]; HC-7366 3 mg/kg twice daily oral): ~65%
- TGI % ([1]; HC-7366 30 mg/kg twice daily oral): ~21%
- HIF1α protein levels [2]: significantly reduced
- HIF2a protein levels [2]: significantly reduced
- PSAT1 levels [3]: did not change
- ASNS by IHC [3, 7]: potent activation
- PHGDH by IHC [3, 7]: potent activation
- PUMA by IHC [3, 7]: potent activation
- S100A8/A9 levels ([3]; single agents and combination): significantly reduced
- OCR (oxygen consumption rate) (MOLM-16 cells [4]): significantly reduced
- glycolysis (ECAR) (MOLM-16 cells [4]): significantly reduced
- viability response (MOLM-16 cells [5]; GCN2 CRISPR knockout cells): reversed
- viability (MOLM-16 cells [5]; GCN2 wild-type (sgControl), lower concentrations, U-shaped manner): potently reduced viability
- puromycin labeling of newly synthesized proteins [6]: potently reduced

From patent US20250339426A1, “GCN2 MODULATOR FOR TREATING CANCER” (HIBERCELL, INC., priority 2022, published 2025)
